Common to all, as to type: biochemical
The target in assay [1] is T1, Laforin (Homo sapiens, UniProt O95278).
T1 sequence (O95278 1-331): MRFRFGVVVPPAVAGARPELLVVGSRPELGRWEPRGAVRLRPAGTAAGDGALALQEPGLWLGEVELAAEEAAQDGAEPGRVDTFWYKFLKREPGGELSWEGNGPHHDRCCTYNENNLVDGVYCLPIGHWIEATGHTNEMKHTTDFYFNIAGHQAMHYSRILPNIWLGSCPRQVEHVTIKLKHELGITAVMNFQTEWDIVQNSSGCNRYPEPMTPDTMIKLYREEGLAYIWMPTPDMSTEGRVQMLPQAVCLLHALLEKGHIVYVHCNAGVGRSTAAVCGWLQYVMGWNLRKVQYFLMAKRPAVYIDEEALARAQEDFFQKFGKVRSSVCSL
Kind of assay: PTP inhibition assay (pNPP). To be noted: for IC50: pNPP at Km, pH 7.0, 25° C., read-out: IC50 Laforin.

Assay [2] deals with T2, PEST (Homo sapiens, UniProt Q05209).
T2 sequence (Q05209 1-780): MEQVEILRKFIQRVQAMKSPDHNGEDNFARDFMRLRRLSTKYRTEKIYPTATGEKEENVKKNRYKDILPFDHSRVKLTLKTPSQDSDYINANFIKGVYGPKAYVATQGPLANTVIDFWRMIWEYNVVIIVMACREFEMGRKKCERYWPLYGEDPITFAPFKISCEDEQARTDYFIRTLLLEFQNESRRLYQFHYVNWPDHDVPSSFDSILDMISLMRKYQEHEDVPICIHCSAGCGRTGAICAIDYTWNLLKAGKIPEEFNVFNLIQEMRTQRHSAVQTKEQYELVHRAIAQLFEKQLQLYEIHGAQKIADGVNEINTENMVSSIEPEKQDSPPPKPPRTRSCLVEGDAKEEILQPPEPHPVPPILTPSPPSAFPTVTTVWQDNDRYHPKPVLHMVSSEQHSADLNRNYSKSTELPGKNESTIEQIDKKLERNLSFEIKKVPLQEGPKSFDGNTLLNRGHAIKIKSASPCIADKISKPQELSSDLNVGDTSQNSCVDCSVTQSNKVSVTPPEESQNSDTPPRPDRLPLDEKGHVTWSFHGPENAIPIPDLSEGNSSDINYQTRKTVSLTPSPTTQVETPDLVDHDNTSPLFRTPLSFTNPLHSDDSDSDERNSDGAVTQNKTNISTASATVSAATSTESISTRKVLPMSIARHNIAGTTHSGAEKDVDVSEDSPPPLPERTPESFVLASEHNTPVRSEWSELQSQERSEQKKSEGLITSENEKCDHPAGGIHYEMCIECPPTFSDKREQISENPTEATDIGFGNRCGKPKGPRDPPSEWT
Nature of the assay: PTP inhibition assay (pNPP). The settings on record: pNPP at Km, pH 7.0, 25° C.; read-out: IC50 PEST.

In assay [3] the target is T3, LMWPTP (Homo sapiens, UniProt P24666).
T3 sequence (P24666 1-158): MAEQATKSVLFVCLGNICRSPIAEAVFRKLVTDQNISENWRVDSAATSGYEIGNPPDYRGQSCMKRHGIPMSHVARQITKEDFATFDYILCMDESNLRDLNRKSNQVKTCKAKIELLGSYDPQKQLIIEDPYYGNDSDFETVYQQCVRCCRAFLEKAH
Nature of the assay: PTP inhibition assay (pNPP). To be noted: pNPP at Km, pH 7.0, 25° C.

Assay [4] has as its target T4, CD45 (Homo sapiens, UniProt P08575).
T4 sequence (P08575 26-1306): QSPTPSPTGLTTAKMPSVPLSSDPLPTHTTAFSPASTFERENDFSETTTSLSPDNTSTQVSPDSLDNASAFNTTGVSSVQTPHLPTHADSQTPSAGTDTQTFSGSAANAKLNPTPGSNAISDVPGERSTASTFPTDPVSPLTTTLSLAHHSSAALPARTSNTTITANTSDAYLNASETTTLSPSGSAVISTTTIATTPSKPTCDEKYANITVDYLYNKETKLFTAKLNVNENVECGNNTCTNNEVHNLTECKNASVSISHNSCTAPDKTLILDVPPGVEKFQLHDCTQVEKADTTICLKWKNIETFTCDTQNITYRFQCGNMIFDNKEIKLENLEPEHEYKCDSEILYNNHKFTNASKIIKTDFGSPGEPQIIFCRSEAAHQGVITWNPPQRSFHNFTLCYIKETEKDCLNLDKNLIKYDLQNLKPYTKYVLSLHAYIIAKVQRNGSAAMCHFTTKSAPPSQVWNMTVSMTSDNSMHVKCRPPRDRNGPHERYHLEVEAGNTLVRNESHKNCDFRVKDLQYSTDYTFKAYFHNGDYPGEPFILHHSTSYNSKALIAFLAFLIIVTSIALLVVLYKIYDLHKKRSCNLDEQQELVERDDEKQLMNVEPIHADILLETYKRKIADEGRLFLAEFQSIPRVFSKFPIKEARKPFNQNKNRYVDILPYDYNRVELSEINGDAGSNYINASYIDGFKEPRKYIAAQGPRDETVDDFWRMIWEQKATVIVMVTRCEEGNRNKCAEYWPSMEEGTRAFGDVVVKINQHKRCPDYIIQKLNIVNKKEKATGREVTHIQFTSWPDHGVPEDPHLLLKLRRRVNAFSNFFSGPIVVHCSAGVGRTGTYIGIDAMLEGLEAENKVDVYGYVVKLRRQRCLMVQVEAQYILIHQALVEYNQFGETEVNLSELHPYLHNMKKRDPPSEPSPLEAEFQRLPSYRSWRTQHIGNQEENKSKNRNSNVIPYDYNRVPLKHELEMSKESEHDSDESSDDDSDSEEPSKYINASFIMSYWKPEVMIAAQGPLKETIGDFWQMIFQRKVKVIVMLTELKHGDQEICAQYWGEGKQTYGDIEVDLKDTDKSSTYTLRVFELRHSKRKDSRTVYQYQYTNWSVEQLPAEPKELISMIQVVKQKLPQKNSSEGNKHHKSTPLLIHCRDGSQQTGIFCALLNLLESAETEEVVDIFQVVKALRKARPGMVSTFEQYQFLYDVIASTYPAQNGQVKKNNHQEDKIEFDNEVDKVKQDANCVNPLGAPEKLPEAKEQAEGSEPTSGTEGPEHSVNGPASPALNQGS
Kind of assay: PTP inhibition assay (pNPP). To be noted: pNPP at Km, pH 7.0, 25° C.

In assay [5] the target is T5, SHP2 (Homo sapiens, UniProt Q06124).
T5 sequence (Q06124 224-528): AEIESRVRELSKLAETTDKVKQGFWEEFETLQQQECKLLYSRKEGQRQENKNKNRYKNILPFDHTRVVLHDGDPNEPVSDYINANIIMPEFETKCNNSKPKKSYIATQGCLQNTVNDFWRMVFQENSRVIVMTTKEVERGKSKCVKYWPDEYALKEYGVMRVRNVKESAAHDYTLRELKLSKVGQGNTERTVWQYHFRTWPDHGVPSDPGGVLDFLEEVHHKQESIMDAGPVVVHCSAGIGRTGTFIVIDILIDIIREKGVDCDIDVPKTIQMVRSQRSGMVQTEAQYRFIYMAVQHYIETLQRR
Kind of assay: SHP2 phosphatase inhibition assay (pNPP). To be noted: pNPP at Km, pH 7.0, 25° C.; read-out: IC50 SHP2.

In assay [6] the target is T6, PTP1B (Homo sapiens, UniProt P18031).
T6 sequence (P18031 1-435): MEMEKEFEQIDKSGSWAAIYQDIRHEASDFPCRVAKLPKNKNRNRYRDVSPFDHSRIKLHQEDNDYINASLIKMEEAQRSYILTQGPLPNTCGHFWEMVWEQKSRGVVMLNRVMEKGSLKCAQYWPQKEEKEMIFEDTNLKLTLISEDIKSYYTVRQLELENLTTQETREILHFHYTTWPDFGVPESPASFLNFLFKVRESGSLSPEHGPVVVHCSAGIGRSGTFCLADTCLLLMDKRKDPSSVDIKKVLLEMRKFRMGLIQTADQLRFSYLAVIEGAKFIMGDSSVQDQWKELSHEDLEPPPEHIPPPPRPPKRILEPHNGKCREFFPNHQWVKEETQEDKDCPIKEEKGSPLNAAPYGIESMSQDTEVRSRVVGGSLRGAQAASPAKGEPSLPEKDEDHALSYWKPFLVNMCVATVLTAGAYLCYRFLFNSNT
Kind of assay: PTP inhibition assay (pNPP). To be noted: pNPP at Km, pH 7.0, 25° C.

In assay [7] the target is T7, LYP (Homo sapiens, UniProt Q9Y2R2).
T7 sequence (Q9Y2R2 1-807): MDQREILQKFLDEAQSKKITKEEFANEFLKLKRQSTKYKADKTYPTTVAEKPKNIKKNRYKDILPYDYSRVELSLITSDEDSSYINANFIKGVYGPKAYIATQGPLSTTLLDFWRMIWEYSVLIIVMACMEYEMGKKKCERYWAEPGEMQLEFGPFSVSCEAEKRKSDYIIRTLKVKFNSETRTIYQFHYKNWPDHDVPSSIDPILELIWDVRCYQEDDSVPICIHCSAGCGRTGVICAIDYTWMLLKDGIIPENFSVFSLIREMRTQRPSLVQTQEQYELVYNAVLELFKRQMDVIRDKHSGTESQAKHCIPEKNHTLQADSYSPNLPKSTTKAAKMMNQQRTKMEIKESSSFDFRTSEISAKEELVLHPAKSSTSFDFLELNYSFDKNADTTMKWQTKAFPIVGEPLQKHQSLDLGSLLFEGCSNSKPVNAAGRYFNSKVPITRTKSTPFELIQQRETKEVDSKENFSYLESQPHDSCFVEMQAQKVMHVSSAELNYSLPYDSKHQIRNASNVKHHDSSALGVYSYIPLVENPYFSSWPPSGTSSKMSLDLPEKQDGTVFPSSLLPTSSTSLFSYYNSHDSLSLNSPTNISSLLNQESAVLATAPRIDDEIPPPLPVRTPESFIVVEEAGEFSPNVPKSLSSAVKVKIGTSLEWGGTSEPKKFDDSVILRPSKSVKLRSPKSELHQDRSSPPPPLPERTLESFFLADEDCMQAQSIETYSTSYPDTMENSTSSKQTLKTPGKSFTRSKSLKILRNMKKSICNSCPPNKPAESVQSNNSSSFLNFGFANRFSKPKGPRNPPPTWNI
Kind of assay: PTP inhibition assay (pNPP). The settings on record: pNPP at Km, pH 7.0, 25° C.

A value given as a limit tells only on which side of the number the result lay.

This is an account of results in patent US10494332B2, “Protein tyrosine phosphatases or SHP2 inhibitors and uses thereof” (Indiana University Research and Technology Corporation, priority 2015, dated 2019).

One may read the IC50 as the midpoint of a concentration-inhibition curve. Regarding `O=C(Nc1nnc(-c2ccccc2)s1)C(c1ccccc1)S(=O)(=O)O` (stereo not drawn) [Compound L319M73-2], the IC50 in assay [1] is 1.3 µM; in assay [2], over 200 µM; in assay [3], 10.2 µM. For the same molecule, the “Fold specificity for Laforin over LMPTP” value in assay [1] (ratio of IC50) is 8 fold. In addition, in assay [1] (ratio of IC50), the “Fold specificity for Laforin over other PTPs” value is on record as 100 fold.

On to `Cc1ccc2nc(NC(=O)C(c3ccccc3)S(=O)(=O)O)sc2c1` (stereo not drawn) [Compound L319N15-08], for which the IC50 in assay [4] is over 200 µM; in assay [1] it was 2 µM; in assay [5], over 200 µM; in assay [6] it was over 200 µM; in assay [7], over 200 µM; in assay [3], 8.2 µM.

With `O=C(Nc1nc2ccc(OC(F)(F)F)cc2s1)C(c1ccccc1)S(=O)(=O)O` (stereo not drawn) [Compound L319N15-09], the IC50 in assay [4] was determined as 80 µM; in assay [1] it was 3.2 µM; in assay [5], 47 µM; in assay [6], 160 µM; in assay [7], 20 µM; in assay [3], 5.3 µM.

Turning to `COc1ccc2nc(NC(=O)C(c3ccccc3)S(=O)(=O)O)sc2c1` (stereo not drawn) [Compound L319N15-10], the IC50 in assay [4] is over 200 µM; in assay [1] it was 2.1 µM; in assay [5], over 200 µM; in assay [6] it was over 200 µM; in assay [7], over 200 µM; in assay [3], 5.8 µM.

Take `Nc1ccc2nc(NC(=O)C(c3ccccc3)S(=O)(=O)O)sc2c1` (stereo not drawn) [Compound L319N15-12]: the IC50 in assay [4] is 160 µM; in assay [1] it was 3.3 µM; in assay [5], 190 µM; in assay [6], over 200 µM; in assay [7], 166 µM; in assay [3], 14 µM.

`O=C(O)c1ccc2nc(NC(=O)C(c3ccccc3)S(=O)(=O)O)sc2c1` (stereo not drawn) [Compound L319N15-13]: the IC50 in assay [4] was 90 µM; in assay [1], over 200 µM; in assay [5], 83 µM; in assay [6] it was over 200 µM; in assay [7], 31 µM; in assay [3], 70 µM. Also, the “Inhibition of Laforin at 200 μM” value in assay [1] (200 μM) was “did not inhibit”.

Take `O=C(Nc1nc2ccccc2s1)C(c1ccc(Br)cc1)S(=O)(=O)O` (stereo not drawn) [Compound L319N15-14]: the IC50 was over 200 µM in assay [4]; 19 µM in assay [1]; over 200 µM in assay [5]; over 200 µM in assay [6]; over 200 µM in assay [7]; over 200 µM in assay [3].

For `O=C(Nc1nc2ccccc2s1)C(c1ccc([N+](=O)[O-])cc1)S(=O)(=O)O` (stereo not drawn) [Compound L319N15-16], the IC50 in assay [4] was over 200 µM; in assay [1] it was 66 µM; in assay [5], 135 µM; in assay [6], over 200 µM; in assay [7], 180 µM; in assay [3], over 200 µM.

For `O=C(Nc1nc2ccccc2s1)C(c1ccccc1F)S(=O)(=O)O` (stereo not drawn) [Compound L319N15-17], the concentration for half-maximal inhibition (IC50) in assay [4] was over 100 µM; in assay [1], 14 µM; in assay [5] it was over 100 µM; in assay [6], over 100 µM; in assay [7] it was over 100 µM; in assay [3], over 100 µM.

Take `O=C(Nc1nc2ccccc2s1)C(c1ccccc1Cl)S(=O)(=O)O` (stereo not drawn) [Compound L319N15-18]: the IC50 in assay [4] was over 100 µM; in assay [1], 32 µM; in assay [5] it was over 100 µM; in assay [6] it was over 100 µM; in assay [7], over 100 µM; in assay [3], over 100 µM.
